Assay [1] concerns mouse peritoneal macrophages. In words: Asbestos-exposed peritoneal macrophages: oxidative/nitrosative stress and cytokine secretion. It counts as cell-based. The note with it: 20 μg/cm^2 asbestos; 25 and 50 μM SDG 3-8 hours post exposure; p<0.05. Here is the method: To test the hypothesis that the flaxseed lignan SDG will decrease asbestos-induced inflammation, and oxidative and nitrosative stress, mouse peritoneal macrophages were exposed to varying concentrations of crocidolite asbestos fibers ([…]). At variable times post asbestos exposure (3, 4, 6, and 8 hours), cells were incubated with SDG (50 μM) and supernatants collected 24 hours later to detect inflammatory cytokine secretion and nitrosative/oxidative stress (FIG. 49).
(§1) SDG given to macrophages several hours post exposure to asbestos decreases oxidative stress (FIGS. 52A-52B). Female C57/Bl6 mice were injected with 2 mL of thioglycollate and peritoneal macrophages harvested after 3 days. 2 million cells per well were plated in a 6 well plate and exposed to 20 μg/cm^2 asbestos. Cells were treated with 25 or 50 μM SDG (synthetic SDG) 3, 4, 6, or 8 hours post-asbestos exposure. Cells were harvested 24 hours post-asbestos exposure. Analysis performed on frozen supernatant samples.
as §1, with “Given” for “given”, “Macrophages Several Hours Post Exposure to Asbestos Decreases Nitrosative Stress (FIGS. 53A-53B). To evaluate of SDG in blunting nitrosative stress in cells” for “macrophages several hours”, “post” for “post exposure to”, “exposure, female” for “decreases oxidative stress (FIGS. 52A-52B). Female”
SDG Given to Macrophages Several Hours Post Exposure to Asbestos Decreases inflammatory cytokine secretion (IL-1β) (FIGS. 54A-54B). To evaluate SDG in blunting inflammatory cytokine secretion (IL-1β) in cells post asbestos exposure, female C57/Bl6 mice were injected with 2 mL of thioglycollate and peritoneal macrophages harvested after 3 days 2 million cells per well were plated in a 6 well plate and exposed to 20 μg/cm^2 asbestos. Cells were treated with 25 or 50 μM SDG (synthetic SDG) 3, 4, 6, or 8 hours post-asbestos exposure. Cells were harvested 24 hours post-asbestos exposure. Analysis performed on fresh supernatant samples.
SDG Given to Macrophages Several Hours Post Exposure to Asbestos Decreases inflammatory cytokine secretion (TNF-α) (FIGS. 55A-55B). To evaluate SDG in blunting inflammatory cytokine secretion (TNF-α) in cells post asbestos exposure, female C57/Bl6 mice were injected with 2 mL of thioglycollate and peritoneal macrophages harvested after 3 days. 2 million cells per well were plated in a 6 well plate and exposed to 20 μg/cm^2 asbestos. Cells were treated with 25 or 50 μM SDG (synthetic SDG) 3, 4, 6, or 8 hours post-asbestos exposure. […]

The subject of a further assay is human mesothelial cells. In words: Asbestos-induced ROS (DCF fluorescence) in human mesothelial cells. It counts as cell-based. The note with it: asbestos 10 μg crocidolite/cm^2 or H2O2 100 μM; SDG 50 μM. On the procedure: (§2) SDG blunts asbestos-induced ROS secretion by human mesothelial cells in vitro (FIG. 50). Experimental plan for detecting asbestos-induced ROS in cells: (human mesothelial) HM cells or mouse macrophages plated in 20% DMEM for 24 hours; Added 20 μM DCF in HBSS for 1 hour; Supernatant replaced with 1% DMEM containing H2O2 (100 μM), asbestos (10 μg crocidolite/cm^2) and/or SDG (50 μM); and Fluorescence level monitored up to 36 hours post-initiation of asbestos exposure.

For another assay, the system named is human epithelial cells. In words: BaP-induced oxidative DNA damage (gamma-H2AX levels). Particulars: SDG 5, 10, 25, 50 and 100 μM. The format is cell-based. From the text:
Similarly, SDG prevents genotoxic stress in human epithelial cells exposed to BaP. Exposure of cells to a potent carcinogen such as BaP, induces genotoxic stress as indicated by increased levels of p53 protein (FIG. 25). […] SDG also prevents oxidative DNA damages in human epithelial cells exposed to BaP. Exposure of cells to a potent carcinogen such as BaP, induces oxidative DNA damage as indicated by increased levels of gamma-H2AX, a marker for double-stranded DNA breaks (FIG. 26). […] Furthermore, SDG prevents DNA adduct formation in human epithelial cells exposed to BaP. Exposure of cells to a potent carcinogen such as BaP, induces the formation of DNA adducts (FIG. 27). DNA adducts are pieces of DNA covalently linked to a carcinogen and is directly linked to the development of malignancy. The DNA adduct levels is decreased by the presence of SDG or its metabolites ED and EL given alone or in combination.

Assay [2] in a line: γ-Radiation-induced chlorination of 2-AP. An excerpt: (§3) 2-AP in PBS was exposed to hypochlorite and fluorescence spectra recorded between 360-390 nm with the emission maximum at 374 nm. The % change in 2-AP calculated.
To determine whether radiation induces nucleobase chlorination, we used the same system as above, namely 2-AP fluorescence (FIG. 19A).

Another assay concerns mouse RAW macrophages. In words: Asbestos-induced ROS in RAW macrophages. It counts as cell-based. Here is the method:
as §2
Asbestos-Induced Oxidative Stress (ROS release) in Culture RAW Macrophages was evaluated. Cells were treated with the ROS-sensitive dye H2DCFDA for 30 min and then they were exposed to vehicle to 40 μg/cm2 asbestos fibers, or 4 uM hypochlorite solution and fluorescence intensity was measured spectrophotometrically for 90, 150 minutes and 27 hours. Asbestos-induced ROS was generated shortly post asbestos exposure and continued for the duration of the observation period (FIG. 51).

Assay [3] in a line: Hypochlorite-induced chlorination of 2-aminopurine (2-AP).
Description: as §3

The values below come from patent publication US10966995B2, “Use of secoisolariciresinol diglucosides (SDGS) and related compounds for protection against radiation and chemical damage” (THE TRUSTEES OF THE UNIVERSITY OF PENNSYLVANIA, priority 2014, dated 2021).

Consider `COc1cc(C[C@@H](CO[C@@H]2O[C@H](CO)[C@@H](O)[C@H](O)[C@H]2O)[C@H](CO[C@@H]2O[C@H](CO)[C@@H](O)[C@H](O)[C@H]2O)Cc2ccc(O)c(OC)c2)ccc1O` [SDG, secoisolariciresinol diglucoside], for which, in assay [1], the IL-1β levels result was “significantly decreased”; the “Malondialdehyde (MDA) levels, lipid peroxidation” value is recorded as “significantly decreased”; the “Nitrite, marker for nitrosative stress” value was “significantly decreased”; the TNF-α levels entry is recorded as “significantly decreased”. Besides, in the assay with human mesothelial cells, the ROS levels result is given as “significantly lowers ROS levels to baseline levels”. For the same compound, in the assay with human epithelial cells, the gamma-H2AX levels result is recorded as “mitigated dose-dependently”. The “γ-radiation-induced decrease in 2-AP fluorescence intensity” value in assay [2] is given as “prevented”. Moreover, the “Asbestos-induced ROS” value with mouse RAW macrophages is “blocks asbestos-induced ROS”. Also, in assay [3] (10 μM hypochlorite, SDG pre-treatment 60 seconds), the “Hypochlorite-induced decrease of 2-AP fluorescence, pre-treatment” value was “prevented”. In addition, in assay [3] (SDG added +15 to +300 seconds after ClO^−), the “Hypochlorite-induced 2-AP modification, post-treatment” value is on record as “significant recovery”.
